Among the data in PMC9158366, “The inhibition of tamoxifen on UGT2B gene expression and enzyme activity in rat liver contribute to the estrogen homeostasis dysregulation” (BMC Pharmacology & Toxicology, 2022) are Ki values, retold here.

Structures are written as SMILES.

The assay addresses T1, UGT2B7 (Homo sapiens, UniProt P16662).
T1 sequence (P16662 24-529): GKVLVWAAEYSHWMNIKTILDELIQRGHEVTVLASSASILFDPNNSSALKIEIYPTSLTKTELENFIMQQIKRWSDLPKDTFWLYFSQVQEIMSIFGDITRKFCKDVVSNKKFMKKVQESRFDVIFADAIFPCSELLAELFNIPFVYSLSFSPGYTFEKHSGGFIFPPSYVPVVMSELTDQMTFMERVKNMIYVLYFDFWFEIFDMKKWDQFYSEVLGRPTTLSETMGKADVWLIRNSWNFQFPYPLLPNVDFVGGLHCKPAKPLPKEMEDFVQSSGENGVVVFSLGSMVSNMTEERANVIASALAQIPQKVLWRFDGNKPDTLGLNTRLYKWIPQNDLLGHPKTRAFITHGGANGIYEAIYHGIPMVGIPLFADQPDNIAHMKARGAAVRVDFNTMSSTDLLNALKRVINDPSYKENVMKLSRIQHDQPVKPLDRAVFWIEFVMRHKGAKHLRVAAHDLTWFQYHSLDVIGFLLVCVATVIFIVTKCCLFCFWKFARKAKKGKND
Kind of assay: inhibition of naloxone glucuronidation in human liver microsomes, HPLC. The class given is biochemical. A general note: Microsomes from liver hold many membrane-bound enzymes, among them those of drug oxidation.

For orientation: Ki means the dissociation constant of the complex between target and ligand, obtained from inhibition or displacement. Read a high Ki as lower affinity. Consider `CC/C(=C(\c1ccccc1)c1ccc(OCCN(C)C)cc1)c1ccccc1` [tamoxifen], for which affinity was put at a Ki of 37.7 µM.
